Data reported in patent EP1064284B1, “HYPNOTIC BETA-CARBOLINE DERIVATIVES, PROCESS FOR THEIR PREPARATION AND THEIR USE AS MEDICINAL PRODUCTS” (priority 1998, dated 1999).
“Also recorded” adds a separate entry of the source. Where two headings read alike, the source gives them in different places.

What was measured:
[1] = Stability in acidic medium (hydrolysis of cycle A in pH buffers, HPLC); type: physicochemical; settings: for Hydrolysis rate (%) pH=1: pH=1 buffer; for Hydrolysis rate (%) pH=1 / Hydrolysis rate (%) pH=2 / Hydrolysis rate (%) pH=3 / Hydrolysis rate (%) pH=7 (reference): 30 µM in 5 ml, stirred 15 minutes at 37°C; for Hydrolysis rate (%) pH=2: pH=2 buffer; for Hydrolysis rate (%) pH=3: pH=3 buffer; for Hydrolysis rate (%) pH=7 (reference): pH=7 (reference) buffer
Description: In order to study the influence of R8 group on the stability of cycle A when comparing compounds EXAMPLE A and EXAMPLE B (R8 = hydrogen atom) to compounds of Example 1, Example 4, Example 7, Example 8 and Example 11, 30 µM of each of these compounds were dissolved into 5 ml of pH=1 or pH=2 or pH=3 or pH=7 (reference) buffer. Solutions were stirred for 15 minutes at 37°C. Subsequent measurements of compounds amounts non hydrolyzed were measured using a high performance liquid chromatography method. [drawing 18] Table I :
Compounds n°1, 4, 7, 8 and 11 are quite stable from pH=2, since less than 27 per cent of these compounds are hydrolysed at pH≥2.

[2] = Absolute oral bioavailability (oral/IV) in Beagle dogs; type: in vivo
Beagle dogs = assay: Hypnotic activity: effects on wakefulness / sleep states in Beagle dogs (EEG/EMG/EOG polygraph); type: in vivo; settings: for Mean (± S.D.) duration of stages in 8 dogs (minutes) REM / Mean (± S.D.) latencies after administration (minutes) REM / Mean (± S.D.) duration of stages in 8 dogs (minutes) Drowsy / Mean (± S.D.) duration of stages in 8 dogs (minutes) SWS / Mean (± S.D.) duration of stages in 8 dogs (minutes) Sleep / Mean (± S.D.) duration of stages in 8 dogs (minutes) Wake / Mean (± S.D.) latencies after administration (minutes) Drowsy / Mean (± S.D.) latencies after administration (minutes) SWS: 120 minutes observation; for hypnotic effect in Beagle dogs (in words): oral
Description: Beagle dogs are kept in a metal cage, connected to 2 Schwartzer ED 24 Polygraph equipped with BRAINLAB® software, through a flexible cable. Test and control products are administered via the oral or intravenous routes by means of gastric tubes. Records are scored in 30 seconds epochs for active wake, drowsy, slow wave sleep (light sleep + deep sleep) and REM sleep. These criteria are according to SHELTON et al.( in SHELTON J., NISHINO S., VAUGHT J., DEMENT W.C. and MIGNOT E. Comparative effects of modafinil and amphetamine on daytime sleepiness and cataplexy of narcoleptic dogs. Sleep 19(1); 29-38, 1996.), based upon frequency and amplitude patterns of EEG cortical tracing (fronto-frontal), EMG (upper neck muscles) and EOG (bilateral). Behaviour is also continuously monitored for each observation period of 120 minutes. Prior acclimatisation of the dogs take 5 days; and, to mimic similar stress caused by gastric tubing, a mixture water/PEG (50/50; V/V) was administered orally together with intravenous boluses. • Wake : includes all episodes with low voltage mixed frequency tracing in which the EMG is not inhibited. […] Synchronous waves at 4 - 7 Hz and 50 - 100 µV appear on a background of low voltage fast-wave activity. […] EEG patterns are of higher amplitude than in the previous stage and sleep spindles ( 10 - 14 Hz) and / or K complexes must be present in light sleep, as EOG show slow eye movements or no movement. Deep sleep is scored when slow delta waves (< 4 Hz) constitute 20 p. cent of an epoch or more during deep sleep. • REM : rapid eye movement sleep is scored when dogs lay down, eyes closed with intermittent apparent fast muscle twitches. A low voltage mixed frequency EEG tracing is observed together with rapid eye movements and a drop in EMG activity.
Repartition and duration of wakefulness / sleep states in Beagle dogs have been measured after oral (and intravenous route for compoundof EXAMPLE 1) administrations of Placebo (vehicle = 10 ml of mixture ethanol / PEG 400 / water; 10 / 40 /50; V/V/V) compounds of Example 1, Example 4 and Example 7.
Results are presented in Tables II and III as Durations and Latencies of each stage.

[3] = dog, in vivo, Beagle dogs, fasting conditions, oral relative to intravenous route, read-out: Absolute bioavailability oral/IV in Beagle dogs (fasting conditions) 1 < gastric pH < 2

SMILES	Hydrolysis rate (%) pH=1 [1] [%]	Hydrolysis rate (%) pH=2 [1] [%]	Hydrolysis rate (%) pH=3 [1] [%]	Hydrolysis rate (%) pH=7 (reference) [1] [%]	per cent of compounds hydrolysed at pH≥2 [1]	bioavailability ([2]; beagle, dog, in vivo) [%]	hypnotic effect in Beagle dogs (in words) (Beagle dogs)	also measured
COc1ccc2[nH]c3c(c2c1)CCN1C(=O)CCC=C31 [EXAMPLE A, reference compound]	100	100	100	0	–	–	–	hydrolysis between pH=1 and pH=3 (in words) [1]: totally hydrolyzed; bioavailability [2, 3]: < 1%
COc1ccc2[nH]c3c(c2c1)CCN1C(=O)CCCC31 (stereo not shown) [EXAMPLE B, reference compound]	95	95	90	0	–	–	–	hydrolysis between pH=1 and pH=3 (in words) [1]: totally hydrolyzed; Absolute bioavailability oral/IV in Beagle dogs (fasting conditions) 1 < gastric pH < 2 ([2]; Beagle dogs, fasting conditions, oral relative to intravenous route): <5%; bioavailability [2, 3]: < 5%
CCC1=C2c3[nH]c4ccc(OC)cc4c3CCN2C(=O)CC1 [Example 1, 9-methoxy-1-ethyl-2,3,4,6,7,12-hexahydroindolo [2,3-a] quinolizin-4-one]	79.5	14.5	8.7	0	less than 27 per cent	> 35	significant hypnotic effect; also recorded: potent hypnotic activity	Absolute bioavailability oral/IV in Beagle dogs (fasting conditions) 1 < gastric pH < 2 ([2]; beagle, dog, in vivo): >35%; Mean (± S.D.) duration of stages in 8 dogs (minutes) REM (Beagle dogs; 2.5 µmol/Kg IV): 3.8 (3.9) minutes; Mean (± S.D.) latencies after administration (minutes) REM (Beagle dogs; 2.5 µmol/Kg IV): 79.9 (25.4) minutes; Mean (± S.D.) duration of stages in 8 dogs (minutes) REM (Beagle dogs; 2.5 µmol/Kg oral): 3.3 (3.4) minutes; Mean (± S.D.) latencies after administration (minutes) REM (Beagle dogs; 2.5 µmol/Kg oral): 82.9 (32.8) minutes; Mean (± S.D.) duration of stages in 8 dogs (minutes) REM (Beagle dogs; 5 µmol/Kg oral, Table II): 3.1 (3.7) minutes; Mean (± S.D.) latencies after administration (minutes) REM (Beagle dogs; 5 µmol/Kg oral, Table II): 79.3 (33.3) minutes; Mean (± S.D.) duration of stages in 8 dogs (minutes) REM (Beagle dogs; 10 µmol/Kg oral, Table II): 2.4 (3.5) minutes; Mean (± S.D.) latencies after administration (minutes) REM (Beagle dogs; 10 µmol/Kg oral, Table II): 101.9 (27.3) minutes
COc1ccc2[nH]c3c(c2c1)CCN1C(=O)CCC(c2ccccc2)=C31 [Example 4, 9-methoxy-1-phenyl-2,3,4,6,7,12-hexahydroindolo[2,3-a] quinolizin-4-one]	0	0	0	0	less than 27 per cent	> 20	significant hypnotic effect; also recorded: potent hypnotic activity	Absolute bioavailability oral/IV in Beagle dogs (fasting conditions) 1 < gastric pH < 2 ([2]; beagle, dog, in vivo): >20%; Mean (± S.D.) duration of stages in 8 dogs (minutes) Drowsy (Beagle dogs; 10 µmol/Kg oral, Table III): 10.4 (3.9) minutes; Mean (± S.D.) duration of stages in 8 dogs (minutes) REM (Beagle dogs; 10 µmol/Kg oral, Table III): 4.4 (4.5) minutes; Mean (± S.D.) duration of stages in 8 dogs (minutes) SWS (Beagle dogs; 10 µmol/Kg oral, Table III): 31.5 (17.6) minutes; Mean (± S.D.) duration of stages in 8 dogs (minutes) Sleep (Beagle dogs; 10 µmol/Kg oral, Table III): 46.3 (21.3) minutes; Mean (± S.D.) duration of stages in 8 dogs (minutes) Wake (Beagle dogs; 10 µmol/Kg oral, Table III): 73.8 (21.3) minutes; Mean (± S.D.) latencies after administration (minutes) Drowsy (Beagle dogs; 10 µmol/Kg oral, Table III): 50.4 (19.8) minutes; Mean (± S.D.) latencies after administration (minutes) REM (Beagle dogs; 10 µmol/Kg oral, Table III): 93.1 (26.3) minutes; Mean (± S.D.) latencies after administration (minutes) SWS (Beagle dogs; 10 µmol/Kg oral, Table III): 58.1 (27.0) minutes
CCC1=C2c3[nH]c4ccc(OC)cc4c3CCN2C(=S)CC1 [Example 7, 9-methoxy-1-ethyl-2,3,4,6,7,12-hexahydroindolo[2,3-a] quinolizine-4-thione]	17.0	13.0	5.4	0	less than 27 per cent	–	significant hypnotic effect; also recorded: potent hypnotic activity	Mean (± S.D.) duration of stages in 8 dogs (minutes) Drowsy (Beagle dogs; 5.0 µmol/Kg oral, Table III): 13.0 (8.6) minutes; Mean (± S.D.) duration of stages in 8 dogs (minutes) REM (Beagle dogs; 5.0 µmol/Kg oral, Table III): 4.4 (6.1) minutes; Mean (± S.D.) duration of stages in 8 dogs (minutes) SWS (Beagle dogs; 5.0 µmol/Kg oral, Table III): 18.9 (14.7) minutes; Mean (± S.D.) duration of stages in 8 dogs (minutes) Sleep (Beagle dogs; 5.0 µmol/Kg oral, Table III): 35.1 (25.8) minutes; Mean (± S.D.) duration of stages in 8 dogs (minutes) Wake (Beagle dogs; 5.0 µmol/Kg oral, Table III): 83.7 (25.1) minutes; Mean (± S.D.) latencies after administration (minutes) Drowsy (Beagle dogs; 5.0 µmol/Kg oral, Table III): 59.0 (20.0) minutes; Mean (± S.D.) latencies after administration (minutes) REM (Beagle dogs; 5.0 µmol/Kg oral, Table III): 91.1 (28.1) minutes; Mean (± S.D.) latencies after administration (minutes) SWS (Beagle dogs; 5.0 µmol/Kg oral, Table III): 74.1 (26.3) minutes
CCC1CCC(=O)N2CCc3c([nH]c4ccc(OC)cc34)C12 (stereo not shown) [Example 8, 9-methoxy-1-ethyl-1,2,3,4,6,7,12,12b-octahydroindolo [2,3-a] quinolizin-4-one]	0	0	0	0	less than 27 per cent	100	–	–
COc1ccc2[nH]c3c(c2c1)CCN1C(=S)CCC(c2ccccc2)=C31 [Example 11, 9-methoxy-1-phenyl-2,3,4,6,7,12-hexahydroindolo [2,3-a] [beta]quinolizin 4-thione]	26.0	27.0	30.0	0	less than 27 per cent	–	–	–
